Here are results for 14 compounds from US20120220562A1, “Anti-Viral Compounds” (ABBOTT LABAORATORIES, priority 2011, published 2012).

By EC50 is commonly meant the concentration giving half of the maximal effect.

The subject of this experiment is HCV 1b-Con1 replicon. Put plainly: HCV 1b-Con1 replicon assay in the presence of 5% FBS. In kind it is cell-based. The following applies: Hepatitis C virus.
As to `COC(=O)N[C@H](C(=O)N1CCC[C@H]1c1nc2ccc([C@H]3CC[C@H](c4ccc5nc([C@@H]6CCCN6C(=O)[C@@H](NC(=O)OC)C6CC6)[nH]c5c4)N3c3ccc(C(C)(C)C)cc3)cc2[nH]1)C1CC1` [Example 4.16, dimethyl ([(2R,5R)-1-(4-tert-butylphenyl)pyrrolidine-2,5-diyl]bis{1H-benzimidazole-6,2-diyl(2S)pyrrolidine-2,1-diyl [(1S)-1-cyclopropyl-2-oxoethane-2,1-diyl]}) biscarbamate], the 50% effective concentration (EC50) is less than 0.1 nM.
The figure for `COC(=O)N[C@H](C(=O)N1CCC[C@H]1c1nc2cc([C@H]3CC[C@H](c4cc5nc([C@@H]6CCCN6C(=O)[C@@H](NC(=O)OC)C(C)C)[nH]c5cc4F)N3c3cc(F)c(N4CCC5(CCc6ccccc65)CC4)c(F)c3)c(F)cc2[nH]1)C(C)C` [Example 4.31, methyl {(2S)-1-[(2S)-2-{5-[(2R,5R)-1-[4-(2,3-dihydro-1′H-spiro[indene-1,4′-piperidin]-1′-yl)-3,5-difluorophenyl]-5-{6-fluoro-2-[(2S)-1-{(2S)-2-[(methoxycarbonyl)amino]-3-methylbutanoyl}pyrrolidin-2-yl]-1H-benzimidazol-5-yl}pyrrolidin-2-yl]-6-fluoro-1H-benzimidazol-2-yl}pyrrolidin-1-yl]-3-methyl-1-oxobutan-2-yl}carbamate] is less than 0.1 nM; for `COC(=O)N[C@H](C(=O)N1CCC[C@H]1c1nc2cc([C@H]3CC[C@H](c4cc5nc([C@@H]6CCCN6C(=O)[C@@H](NC(=O)OC)[C@@H](C)OC(C)(C)C)[nH]c5cc4F)N3c3cc(F)c(N4CCC(C(C)(C)C)CC4)c(F)c3)c(F)cc2[nH]1)[C@@H](C)OC(C)(C)C` [Example 4.29, methyl {(2S,3R)-3-tert-butoxy-1-[(2S)-2-(5-{(2R,5R)-5-{2-[(2S)-1-{(2S,3R)-3-tert-butoxy-2-[(methoxycarbonyl)amino]butanoyl}pyrrolidin-2-yl]-6-fluoro-1H-benzimidazol-5-yl}-1-[4-(4-tert-butylpiperidin-1-yl)-3,5-difluorophenyl]pyrrolidin-2-yl}-6-fluoro-1H-benzimidazol-2-yl)pyrrolidin-1-yl]-1-oxobutan-2-yl}carbamate] it is less than 0.1 nM.
As for `CCC1(COc2ccc(N3[C@@H](c4ccc5[nH]c([C@@H]6CCCN6C(=O)[C@@H](NC(=O)OC)C(C)C)nc5c4)CC[C@@H]3c3ccc4[nH]c([C@@H]5CCCN5C(=O)[C@@H](NC(=O)OC)C(C)C)nc4c3)cc2)COC1` [Example 1.7, methyl {(2S)-1-[(2S)-2-{5-[(2R,5R)-1-{4-[(3-ethyloxetan-3-yl)methoxy]phenyl}-5-{2-[(2S)-1-{(2S)-2-[(methoxycarbonyl)amino]-3-methylbutanoyl}pyrrolidin-2-yl]-1H-benzimidazol-5-yl}pyrrolidin-2-yl]-1H-benzimidazol-2-yl}pyrrolidin-1-yl]-3-methyl-1-oxobutan-2-yl}carbamate], the EC50 is less than 0.1 nM.
The figure for `COC(=O)N[C@H](C(=O)N1CCC[C@H]1c1nc2cc([C@H]3CC[C@H](c4ccc5[nH]c([C@@H]6CCCN6C(=O)[C@@H](NC(=O)OC)C(C)C)nc5c4)N3c3cc(Cl)c(N4CCCCC4)c(Cl)c3)ccc2[nH]1)C(C)C` [Example 4.4, methyl {(2S)-1-[(2S)-2-{5-[(2R,5R)-1-[3,5-dichloro-4-(piperidin-1-yl)phenyl]-5-{2-[(2S)-1-{(2S)-2-[(methoxycarbonyl)amino]-3-methylbutanoyl}pyrrolidin-2-yl]-1H-benzimidazol-5-yl}pyrrolidin-2-yl]-1H-benzimidazol-2-yl}pyrrolidin-1-yl]-3-methyl-1-oxobutan-2-yl}carbamate] is less than 0.1 nM; for `COC(=O)N[C@H](C(=O)N1CCC[C@H]1c1nc2cc([C@H]3CC[C@H](c4ccc5[nH]c([C@@H]6CCCN6C(=O)[C@@H](NC(=O)OC)C(C)C)nc5c4)N3c3cc(F)c(N4CCC(c5ccc(F)c(F)c5)CC4)c(F)c3)ccc2[nH]1)C(C)C` [Example 3.44, methyl {(2S)-1-[(2S)-2-{5-[(2R,5R)-1-{4-[4-(3,4-difluorophenyl)piperidin-1-yl]-3,5-difluorophenyl}-5-{2-[(2S)-1-{(2S)-2-[(methoxycarbonyl)amino]-3-methylbutanoyl}pyrrolidin-2-yl]-1H-benzimidazol-5-yl}pyrrolidin-2-yl]-1H-benzimidazol-2-yl}pyrrolidin-1-yl]-3-methyl-1-oxobutan-2-yl}carbamate] it is less than 0.1 nM.
Next, `COC(=O)N[C@H](C(=O)N1CCC[C@H]1c1nc2cc([C@H]3CC[C@H](c4ccc5[nH]c([C@@H]6CCCN6C(=O)[C@@H](NC(=O)OC)C6CCOCC6)nc5c4)N3c3cc(F)c(N4CCC(c5ccccc5)CC4)c(F)c3)ccc2[nH]1)C(C)C` [Example 11.1, methyl [(1S)-2-[(2S)-2-{5-[(2R,5R)-1-[3,5-difluoro-4-(4-phenylpiperidin-1-yl)phenyl]-5-{2-[(2S)-1-{(2S)-2-[(methoxycarbonyl)amino]-3-methylbutanoyl}pyrrolidin-2-yl]-1H-benzimidazol-5-yl}pyrrolidin-2-yl]-1H-benzimidazol-2-yl}pyrrolidin-1-yl]-2-oxo-1-(tetrahydro-2H-pyran-4-yl)ethyl]carbamate]: less than 0.1 nM; `COC(=O)N[C@H](C(=O)N1CCC[C@H]1c1nc2cc([C@H]3CC[C@H](c4ccc5[nH]c([C@@H]6CCCN6C(=O)[C@@H](NC(=O)OC)C(C)C)nc5c4)N3c3cc(F)c(N4CCC(c5cccc([Si](C)(C)C)c5)CC4)c(F)c3)ccc2[nH]1)C(C)C` [Example 3.43, methyl {(2S)-1-[(2S)-2-{5-[(2R,5R)-1-(3,5-difluoro-4-{4-[3-(trimethylsilyl)phenyl]piperidin-1-yl}phenyl)-5-{2-[(2S)-1-{(2S)-2-[(methoxycarbonyl)amino]-3-methylbutanoyl}pyrrolidin-2-yl]-1H-benzimidazol-5-yl}pyrrolidin-2-yl]-1H-benzimidazol-2-yl}pyrrolidin-1-yl]-3-methyl-1-oxobutan-2-yl}carbamate]: less than 0.1 nM.
Next, `COC(=O)N[C@H](C(=O)N1CCC[C@H]1c1nc2cc([C@H]3CC[C@H](c4ccc5[nH]c([C@@H]6CCCN6C(=O)[C@@H](NC(=O)OC)C(C)C)nc5c4)N3c3cc(F)c(N4CCC(F)(F)CC4)c(F)c3)ccc2[nH]1)C(C)C` [Example 1.5, methyl {(2S)-1-[(2S)-2-{5-[(2R,5R)-1-[4-(4,4-difluoropiperidin-1-yl)-3,5-difluorophenyl]-5-{2-[(2S)-1-{(2S)-2-[(methoxycarbonyl)amino]-3-methylbutanoyl}pyrrolidin-2-yl]-1H-benzimidazol-5-yl}pyrrolidin-2-yl]-1H-benzimidazol-2-yl}pyrrolidin-1-yl]-3-methyl-1-oxobutan-2-yl}carbamate]: less than 0.1 nM.
With `COC(=O)N[C@H](C(=O)N1CCC[C@H]1c1nc2cc([C@H]3CC[C@H](c4ccc5[nH]c([C@@H]6CCCN6C(=O)[C@@H](NC(=O)OC)C(C)C)nc5c4)N3c3ccc(Cl)cc3)ccc2[nH]1)C(C)C` [Example 3.4, methyl {(2S)-1-[(2S)-2-{5-[(2R,5R)-1-(4-chlorophenyl)-5-{2-[(2S)-1-{(2S)-2-[(methoxycarbonyl)amino]-3-methylbutanoyl}pyrrolidin-2-yl]-1H-benzimidazol-5-yl}pyrrolidin-2-yl]-1H-benzimidazol-2-yl}pyrrolidin-1-yl]-3-methyl-1-oxobutan-2-yl}carbamate], the concentration for a half-maximal effect (EC50) is less than 0.1 nM.
Regarding `COC(=O)N[C@H](C(=O)N1CCC[C@H]1c1nc2cc([C@H]3CC[C@H](c4ccc5[nH]c([C@@H]6CCCN6C(=O)[C@@H](NC(=O)OC)C(C)C)nc5c4)N3c3cc(F)c(N4CCN(c5ccc(C(F)(F)F)cc5)CC4)c(F)c3)ccc2[nH]1)C(C)C` [Example 2.17, methyl {(2S)-1-[(2S)-2-{5-[(2R,5R)-1-(3,5-difluoro-4-{4-[4-(trifluoromethyl)phenyl]piperazin-1-yl}phenyl)-5-{2-[(2S)-1-(2S)-2-[(methoxycarbonyl)amino]-3-methylbutanoylpyrrolidin-2-yl]-1H-benzimidazol-5-yl}pyrrolidin-2-yl]-1H-benzimidazol-2-yl}pyrrolidin-1-yl]-3-methyl-1-oxobutan-2-yl}carbamate], the EC50 is less than 0.1 nM.
On to `COC(=O)N[C@H](C(=O)N1CCC[C@H]1c1nc2ccc([C@H]3CC[C@H](c4ccc5nc([C@@H]6CCCN6C(=O)[C@@H](NC(=O)OC)C(C)C)[nH]c5c4)N3c3ccc(N(C(C)=O)C(C)(C)C)c(F)c3)cc2[nH]1)C(C)C` [Example 2.8, methyl {(2S)-1-[(2S)-2-{6-[(2R,5R)-1-{4-[acetyl(tert-butyl)amino]-3-fluorophenyl}-5-{2-[(2S)-1-{(2S)-2-[(methoxycarbonyl)amino]-3-methylbutanoyl}pyrrolidin-2-yl]-1H-benzimidazol-6-yl}pyrrolidin-2-yl]-1H-benzimidazol-2-yl}pyrrolidin-1-yl]-3-methyl-1-oxobutan-2-yl}carbamate], for which the EC50 was 0.1 to 1 nM.
Next, `COC(=O)N[C@H](C(=O)N1CCC[C@H]1c1nc2cc([C@H]3CC[C@@H](c4ccc5[nH]c([C@@H]6CCCN6C(=O)[C@@H](NC(=O)OC)C(C)C)nc5c4)N3c3cc(F)c(C(F)(F)F)cc3F)ccc2[nH]1)C(C)C` [Example 1.3, methyl {(2S)-1-[(2S)-2-{5-[(2S,5R)-1-[2,5-difluoro-4-(trifluoromethyl)phenyl]-5-{2-[(2S)-1-{(2S)-2-[(methoxycarbonyl)amino]-3-methylbutanoyl}pyrrolidin-2-yl]-1H-benzimidazol-5-yl}pyrrolidin-2-yl]-1H-benzimidazol-2-yl}pyrrolidin-1-yl]-3-methyl-1-oxobutan-2-yl}carbamate]: less than 0.1 nM; `COC(=O)N[C@H](C(=O)N1CCC[C@H]1c1nc2cc([C@H]3CC[C@H](c4ccc5[nH]c([C@@H]6CCCN6C(=O)[C@@H](NC(=O)OC)C(C)C)nc5c4)N3c3cc(F)c(N4CCC(C)(C)CC4)c(F)c3)ccc2[nH]1)C(C)C` [Example 5.10, methyl {(2S)-1-[(2S)-2-{5-[(2R,5R)-1-[4-(4,4-dimethylpiperidin-1-yl)-3,5-difluorophenyl]-5-{2-[(2S)-1-{(2S)-2-[(methoxycarbonyl)amino]-3-methylbutanoyl}pyrrolidin-2-yl]-1H-benzimidazol-5-yl}pyrrolidin-2-yl]-1H-benzimidazol-2-yl}pyrrolidin-1-yl]-3-methyl-1-oxobutan-2-yl}carbamate]: less than 0.1 nM.
